From patent US20260151517A1, “SOMATOSTATIN RECEPTOR-TARGETING RADIOPHARMACEUTICALS AND USES THEREOF” (Nuclidium AG, priority 2024, published 2026)
Where a SMILES comes first, the peptide text is derived from it. Bridges are numbered along the chain shown (N, C = ends). [ ]: non-standard residue; d: D form. The star is where a group is joined. X2 = O=C(O)CN1CCN(CC(=O)O)CCN([C@H](CCC(=O)*)C(=O)O)CC1; dPhe(4-NHCONH2) = NC(=O)Nc1ccc(C[C@@H](N)C(=O)O)cc1; Phe(4-Cl) = N[C@@H](Cc1ccc(Cl)cc1)C(=O)O

Key:
[1] = molecular target: T1, SSTR1 (Homo sapiens, UniProt P30872); test: Binding affinity (IC50) to SSTR subtypes, displacement of [Leu,D-Trp,^125I-Tyr]-somatostatin-28; details: membrane pellet sections of SSTR1-expressing cells
T1 construct: expressed in transfected cells
T1 sequence (P30872 whole entry): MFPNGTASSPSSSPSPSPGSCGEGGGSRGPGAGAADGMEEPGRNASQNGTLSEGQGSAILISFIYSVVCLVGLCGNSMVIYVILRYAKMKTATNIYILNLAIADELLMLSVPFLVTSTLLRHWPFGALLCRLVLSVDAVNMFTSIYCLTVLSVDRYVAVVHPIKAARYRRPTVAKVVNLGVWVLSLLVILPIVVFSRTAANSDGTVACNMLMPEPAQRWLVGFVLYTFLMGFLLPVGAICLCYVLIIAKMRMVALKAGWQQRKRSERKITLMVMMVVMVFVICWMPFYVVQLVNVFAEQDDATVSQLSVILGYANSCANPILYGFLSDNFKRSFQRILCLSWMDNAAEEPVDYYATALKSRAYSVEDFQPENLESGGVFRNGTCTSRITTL
Method: (§1) The binding affinity of Cu-NODAGA-LM3 was determined by measuring the IC50 by labelling the precursor with natural copper (^natCu). The IC50 value is the concentration in which 50% of the specific binding of a reference radioligand to the tested molecule is inhibited. The universal somatostatin radioligand [Leu,D-Trp,^125I-Tyr]-somatostatin-28 was used as a reference radioligand. The assay was performed on […] cryostat sections of membrane pellets prepared from SSTR1-, SSTR2-, SSTR3-, SSTR4-, and SSTR5-expressing cells incubated with increasing concentrations of ^natCu-NODAGA-LM3. IC50 values for each SSTR subtype were calculated by mathematically extracting the concentration of the tested molecule, causing 50% displacing of the specific bounded [Leu,D-Trp,^125I-Tyr]-somatostatin-28.

[2] = molecular target: T2, SSTR2 (Homo sapiens, UniProt P30874); test: as above; details: membrane pellet sections of SSTR2-expressing cells
T2 construct: expressed in transfected cells
T2 sequence (P30874 whole entry): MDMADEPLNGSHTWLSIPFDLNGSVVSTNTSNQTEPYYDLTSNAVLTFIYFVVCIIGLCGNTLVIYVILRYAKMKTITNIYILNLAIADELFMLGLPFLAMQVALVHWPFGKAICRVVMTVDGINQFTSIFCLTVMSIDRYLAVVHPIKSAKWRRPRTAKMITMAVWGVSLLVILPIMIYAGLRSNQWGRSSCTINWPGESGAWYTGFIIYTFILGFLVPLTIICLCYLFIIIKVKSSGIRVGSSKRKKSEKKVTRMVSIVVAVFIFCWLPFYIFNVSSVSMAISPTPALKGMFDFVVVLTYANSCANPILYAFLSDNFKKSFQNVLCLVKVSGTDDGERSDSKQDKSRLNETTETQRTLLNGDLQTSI
Method: as §1

[3] = molecular target: T3, SSTR3 (Homo sapiens, UniProt P32745); test: as above; details: membrane pellet sections of SSTR3-expressing cells
T3 construct: expressed in transfected cells
T3 sequence (P32745 whole entry): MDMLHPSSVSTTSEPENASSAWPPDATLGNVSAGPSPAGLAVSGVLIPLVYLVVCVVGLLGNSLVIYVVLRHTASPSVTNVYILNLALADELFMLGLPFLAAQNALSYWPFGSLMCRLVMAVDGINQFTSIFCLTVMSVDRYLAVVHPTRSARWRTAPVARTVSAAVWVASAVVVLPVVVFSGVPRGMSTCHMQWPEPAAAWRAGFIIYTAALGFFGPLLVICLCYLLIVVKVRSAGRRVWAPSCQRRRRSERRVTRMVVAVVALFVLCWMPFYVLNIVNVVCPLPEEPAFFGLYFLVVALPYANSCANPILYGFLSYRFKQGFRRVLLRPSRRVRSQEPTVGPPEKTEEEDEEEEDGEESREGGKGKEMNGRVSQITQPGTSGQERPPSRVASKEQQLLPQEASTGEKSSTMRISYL
Method: as §1

[4] = molecular target: T4, SSTR4 (Homo sapiens, UniProt P31391); test: as above; details: membrane pellet sections of SSTR4-expressing cells
T4 construct: expressed in transfected cells
T4 sequence (P31391 whole entry): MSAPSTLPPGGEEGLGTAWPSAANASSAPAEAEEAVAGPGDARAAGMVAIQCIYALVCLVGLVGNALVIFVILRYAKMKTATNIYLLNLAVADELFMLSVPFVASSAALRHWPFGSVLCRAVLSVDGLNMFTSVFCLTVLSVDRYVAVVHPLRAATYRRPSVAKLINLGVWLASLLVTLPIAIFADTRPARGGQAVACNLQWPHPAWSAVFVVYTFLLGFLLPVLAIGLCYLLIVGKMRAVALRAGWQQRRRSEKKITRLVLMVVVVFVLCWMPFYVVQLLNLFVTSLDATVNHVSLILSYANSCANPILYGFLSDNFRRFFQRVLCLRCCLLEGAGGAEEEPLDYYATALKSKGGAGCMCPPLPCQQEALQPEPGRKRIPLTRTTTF
Method: as §1

[5] = molecular target: T5, SSTR5 (Homo sapiens, UniProt P35346); test: as above; details: membrane pellet sections of SSTR5-expressing cells
T5 construct: expressed in transfected cells
T5 sequence (P35346 whole entry): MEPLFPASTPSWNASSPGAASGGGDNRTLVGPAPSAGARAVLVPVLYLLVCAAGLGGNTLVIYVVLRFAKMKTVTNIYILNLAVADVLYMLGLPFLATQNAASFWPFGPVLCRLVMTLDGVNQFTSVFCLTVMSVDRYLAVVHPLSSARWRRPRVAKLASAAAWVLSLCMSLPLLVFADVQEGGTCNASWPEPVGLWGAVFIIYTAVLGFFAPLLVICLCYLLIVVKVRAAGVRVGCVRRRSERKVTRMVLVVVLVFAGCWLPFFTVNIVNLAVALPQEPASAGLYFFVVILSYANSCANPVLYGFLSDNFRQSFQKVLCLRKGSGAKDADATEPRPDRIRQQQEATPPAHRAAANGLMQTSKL
Method: as §1

[6] = Extended single-dose toxicity study (GLP, microdose approach); assay type: in vivo, mice; details: both sexes, C57BL/6NCrl, mouse, in vivo, iv, 5 mg/kg; single i.v. dose, 14 days observation, mice; read-out: no adverse effect level (NOAEL)
Method: (§2) The precursor-induced toxicity was evaluated using the non-radiolabeled precursor in line with the IAEA and EMA guidelines. The non-clinical safety study was performed using the microdose approach I described in the ICH guideline M3 (R2). The study was designed as an extended single-dose toxicity study in one rodent species and performed under GLP conditions. NODAGA-LM3 toxicity was evaluated after intravenous administration on day 1 of the study, followed by an observation period of 14 days. 60 (30 males and 30 females) C57BL/6NCrl mice were divided into one dose group and one control group. The test item was administered once by i.v, administration into the tail vein.
(§3) In each of the two groups, 20 male and 20 female main animals were euthanized the day after dosing, whereas 10 male and 10 female recovery animals were kept for an observation period of 14 days after dosing to detect possible delayed occurrence or persistence of, or recovery from toxic effects. Three extra mice per sex were included as replacement animals. The dose group animals were injected with a 5 mg/kg vector in a 5 mL/kg dose volume. The control group underwent injection of the vehicle alone (5 mL/kg). The animals were examined twice daily for toxicity and morbidity/mortality signs. All animals were sacrificed for necropsy. Blood was taken before necropsy for analysis of hematologic and clinical biochemistry parameters. Organs were collected, weighted, and preserved in neutral buffered formaldehyde (4%) for histopathological examination. […] No effects on body weight gain or food consumption were noted. […] Therefore, these differences were considered to be unrelated to the test substance. […] All these changes were transitory and considered non-adverse.

[7] = test system: C57BL/6NCrl mice; test: as above; assay type: in vivo
Method: as §2, §3

[8] = Specificity (blocking) study with excess DOTA-LM3; details: athymic nude Foxn1^nu, mouse, total radioactivity
Method: (§4) Unless otherwise specified, the in vivo studies were performed on athymic nude Foxn1^nu 4-6 weeks-old mice. Animals were injected in the shoulder with HEK-SST2 cells (10^7 cells/200 μL) suspended in PBS. The in vivo experiments were performed when tumors reached a volume between 100-500 mm. At the intervention, all mice were between 7 and 11 weeks old.
(§5) The specificity study was performed parallel to pharmacokinetics studies. For this reason, NODAGA-LM3 was radiolabeled with ^64Cu.
(§6) The specificity of [^64Cu]Cu-NODAGA-LM3 for SSTR2-expressing tissues was evaluated in HEK-SST2 xenograft mice through a blocking study. The mice were administered with 0.15 MBq of [^64Cu]Cu-NODAGA-LM3 co-injected with a 2000-fold excess of DOTA-LM3 as a blocking agent. The mice were sacrificed 4 hours post-injection, and the organs were collected. weighed, and counted in a gamma counter.

[9] = test system: HEK-SST2 xenograft mice; test: Specificity (blocking) study with excess DOTA-LM3; details: inferred from low, stable liver accumulation
Method: as §4, §5, §6

[10] = PET/CT imaging after [^61Cu]CuCl2 injection; assay type: in vivo

In the case of `C[C@@H](O)[C@@H]1NC(=O)[C@H](CCCCN)NC(=O)[C@@H](Cc2ccc(NC(N)=O)cc2)NC(=O)[C@H](Cc2ccc(O)cc2)NC(=O)[C@H](NC(=O)[C@H](Cc2ccc(Cl)cc2)NC(=O)CC[C@H](C(=O)O)N2CCN(CC(=O)O)CCN(CC(=O)O)CC2)CSSC[C@@H](C(=O)N[C@H](Cc2ccc(O)cc2)C(N)=O)NC1=O` [^natCu-NODAGA-LM3, metal not drawn] (X2-[Phe(4-Cl)][dC]Y[dPhe(4-NHCONH2)]KTC[dY]-NH2; disulfide 2-7), the IC50 [1] is reported as ≥ 1000 nM, the IC50 [2] is reported as 6.7 ± 1.5 nM and the IC50 [3] is reported as ≥ 1000 nM. The IC50 [4] was ≥ 1000 nM and the IC50 [5] was ≥ 1000 nM.
For `C[C@@H](O)[C@@H]1NC(=O)[C@H](CCCCN)NC(=O)[C@@H](Cc2ccc(NC(N)=O)cc2)NC(=O)[C@H](Cc2ccc(O)cc2)NC(=O)[C@H](NC(=O)[C@H](Cc2ccc(Cl)cc2)NC(=O)CC[C@H](C(=O)O)N2CCN(CC(=O)O)CCN(CC(=O)O)CC2)CSSC[C@@H](C(=O)N[C@H](Cc2ccc(O)cc2)C(N)=O)NC1=O` [NODAGA-LM3, 2,2′-(7-((R)-4-(((S)-1-(((4R,7S,10S,13R,16S,19S)-4-(((R)-1-amino-3-(4-hydroxyphenyl)-1-oxopropan-2yl)carbamoyl)-10-(4-aminobutyl)-16-(4-hydroxybenzyl)-7-((R)-1-hydroxyethyl)-6,9,12,15,18-pentaoxo-13-(4-ureidobenzyl)-1,2-dithia-5,8,11,14,17-pentaazacycloicosan-19-yl)amino)-3-(4-chlorophenyl)-1-oxopropan-2-yl)amino)-1-carboxy-4-oxobutyl)-1,4,7-triazonane-1,4-diyl)diacetic acid] (X2-[Phe(4-Cl)][dC]Y[dPhe(4-NHCONH2)]KTC[dY]-NH2; disulfide 2-7), the NOAEL at 14 days [6] was 5 mg/kg, the delayed toxicity ([7]; 5 mg/kg i.v., 14 days observation) was “no indication of delayed toxicity” and the “adverse systemic or local effects” value ([7]; 5 mg/kg i.v., mice) was “did not cause any adverse systemic or local effects”. The “body weight gain or food consumption” value ([7]; 5 mg/kg i.v., mice) was “No effects”, the clinical tolerability ([7]; 5 mg/kg i.v., mice) was “clinically well-tolerated” and the mortality ([7]; 5 mg/kg i.v., mice) was “no treatment-related mortality”. For the same molecule, the “macroscopic or microscopic findings” value ([7]; 5 mg/kg i.v., necropsy and histopathology) was “No macroscopic or microscopic findings that could be attributed to treatment”, the “hematology, white cell count” value ([7]; 5 mg/kg i.v., transitory, considered non-adverse) was “increased white cell count in male mice” and the “safety ratio vs intended maximum patient dose 0.8 μg/kg” value ([7]; considering the dose conversion factor) was “higher than 1,000 times”.
For `C[C@@H](O)[C@@H]1NC(=O)[C@H](CCCCN)NC(=O)[C@@H](Cc2ccc(NC(N)=O)cc2)NC(=O)[C@H](Cc2ccc(O)cc2)NC(=O)[C@H](NC(=O)[C@H](Cc2ccc(Cl)cc2)NC(=O)CC[C@H](C(=O)O)N2CCN(CC(=O)O)CCN(CC(=O)O)CC2)CSSC[C@@H](C(=O)N[C@H](Cc2ccc(O)cc2)C(N)=O)NC1=O` [[^64Cu]Cu-NODAGA-LM3, metal not drawn] (X2-[Phe(4-Cl)][dC]Y[dPhe(4-NHCONH2)]KTC[dY]-NH2; disulfide 2-7), the tissue uptake at 4 h ([8]; bone, 0.15 MBq, Uptake Bone, 4 hours post-injection, non-blocking) was 0.39 ± 0.07 %ID/g, the tissue uptake at 4 h ([8]; bone, with DOTA-LM3, 2000-fold excess, co-injected as blocking agent, Uptake Bone, 4 hours blocking, co-injected 2000-fold excess of DOTA-LM3) was 0.01 ± 0.01 %ID/g and the tissue uptake at 4 h ([8]; pancreas, 0.15 MBq, Uptake Pancreas, 4 hours post-injection, non-blocking) was 0.55 ± 0.1 %ID/g. It also gave a tissue uptake at 4 h ([8]; pancreas, with DOTA-LM3, 2000-fold excess, co-injected as blocking agent, Uptake Pancreas, 4 hours blocking, co-injected 2000-fold excess of DOTA-LM3) of 0.12 ± 0.03 %ID/g, a tissue uptake at 4 h ([8]; stomach, 0.15 MBq, Uptake Stomach, 4 hours post-injection, non-blocking) of 1.31 ± 0.55 %ID/g and a tissue uptake at 4 h ([8]; stomach, with DOTA-LM3, 2000-fold excess, co-injected as blocking agent, Uptake Stomach, 4 hours blocking, co-injected 2000-fold excess of DOTA-LM3) of 0.43 ± 0.14 %ID/g. The tissue uptake at 4 h ([8]; tumor, 0.15 MBq, Uptake Tumor, 4 hours post-injection, non-blocking) was 37.9 ± 3.43 %ID/g, the tissue uptake at 4 h ([8]; tumor, with DOTA-LM3, 2000-fold excess, co-injected as blocking agent, Uptake Tumor, 4 hours blocking, co-injected 2000-fold excess of DOTA-LM3) was 0.52 ± 0.18 %ID/g and the in vivo stability [9] was “generally stable in vivo, with limited transchelation phenomena”.
In the case of `[Cl][61Cu][Cl]` [[^61Cu]CuCl2], the “excretion route of free isotopes” value [10] is reported as “excreted mainly through the liver”.
